Data: patent US20140329872A1, “TREATMENT OF HYPERTENSION AND/OR PREVENTION OR TREATMENT OF HEART FAILURE IN A MAMMAL RECEIVING ANTI-COAGULANT THERAPY” (NOVARTIS AG, priority 2010, published 2014)
Like-named read-outs stand apart in the source and are kept apart here.

Tests used:
[1] = tested on: extrinsic pathway of coagulation
Text: The prothrombin time (PT) and its derived measures of prothrombin ratio (PR) and international normalized ratio (INR) are measures of the extrinsic pathway of coagulation. […] The prothrombin time is the time it takes blood plasma to clot after addition of tissue factor (obtained from animals). The result (in seconds) of the prothrombin time performed in a normal individual will vary depending the analytical system and method used. This is due to differences between different batches of manufacturer's tissue factor used to perform the test.
The international normalized ratio (INR) was devised to standardize the results. The INR is the ratio of a patient's prothrombin time (PT) to a normal (control) sample, raised to the power of the International Sensitivity Index (ISI) value for the analytical system used.

[2] = for AUCinf, adjusted geometric mean / AUClast, adjusted geometric mean / Cmax, adjusted geometric mean: healthy subjects, N=25; for pharmacokinetic interaction with LCZ696 (steady-state concentration-time profiles): in the presence and absence of LCZ696, FIG. 1a, 1b
Text: This study employs a single blind, randomized, two-period, crossover design. All subjects are blinded to the treatment to eliminate study bias. Each subject participates in a screening period, two baseline periods, and two treatment periods. A washout period of at least 10 days but not more than 14 days separates each treatment period.
This study employs a single blind, randomized, two-period, crossover design. Twenty six healthy male and female subjects are enrolled to ensure at least 20 completers. Each subject participates in a screening period (day-21 to day-2), two baseline periods (day-1), two treatment periods, a washout period of at least 10 days separating the treatment periods, and a study completion evaluation. Subjects undergo routine safety testing during screening, including physical, routine hematology, biochemistry, urinalysis, viral serology screening, pregnancy testing (female subjects), urine drug screening, alcohol screening, standard 12-lead electrocardiogram (ECG), and vital signs assessments to establish eligibility.
Subjects are randomized into the following two treatment sequences during treatment Period 1 and Period 2 as shown.
Treatment Period 1: Those subjects who successfully pass screening (Days-21 to -2) report to the study center in the morning of the day prior to the initial dosing (Day-1) for admission into the study center, at which time they undergo baseline safety evaluations as conducted during screening (except viral serology). All baseline safety evaluation results should be available prior to first dosing. Subjects are domiciled for at least 11 days during each treatment period.
Serial samples for drug/placebo pharmacokinetics are collected on Day 4 for up to 12 hours post morning dose.
In the evening prior to each of full pharmacokinetic (PK) assessment days (Day 4 & day 5) the subjects fast overnight (10-12 hours) prior to dosing, and continue to fast until 4 hours post-dose. On Day 1, 2, 3, 6, 7, 8, 9, and 10 the subjects are dosed following an overnight fast of 10-12 hours and receive breakfast 30 minutes post-dose, and evening snacks are provided 30 minutes after evening dosing on all dosing days.
Treatment Period 2: Subjects are required to return to the study center following a washout period of at least 10 days for period 2 baseline evaluation (Day-1). All study related activities including pharmacokinetic sampling for all treatments follow the same schedule as in Period 1.

[3] = healthy subjects, Warfarin 25 mg single dose with LCZ696 200 mg b.i.d. or with placebo, N=25
[4] = LCZ696 200 mg b.i.d. + Warfarin 25 mg single dose on Day 5
[5] = Placebo + Warfarin 25 mg single dose on Day 5

Compound | Mean INR (AUCINR/144), geometric mean [1, 3] | Mean Prothrombin time (AUCPT/144), geometric mean [1, 3] [s] | Peak INR, geometric mean [1, 3] | Peak prothrombin time, geometric mean [1, 3] [s] | interaction with LCZ696 as indicated by the INR ([1]; warfarin (racemic) administration, FIG. 3) | interaction with LCZ696 as indicated by prothrombin times ([1]; warfarin (racemic) in the presence and absence (placebo) of LCZ696, FIG. 2) | AUCinf, adjusted geometric mean [2, 4] [ng·h/mL] | AUClast, adjusted geometric mean [2, 4] [ng·h/mL] | Cmax, adjusted geometric mean [2, 4] [ng/mL] | AUCinf, adjusted geometric mean [2, 5] [ng·h/mL] | AUClast, adjusted geometric mean [2, 5] [ng·h/mL] | Cmax, adjusted geometric mean [2, 5] [ng/mL] | pharmacokinetic interaction with LCZ696 (steady-state concentration-time profiles) [2]
CC(=O)CC(c1ccccc1)c1c(O)c2ccccc2oc1=O (racemic) [Warfarin, (RS)-4-hydroxy-3-(3-oxo-1-phenylbutyl)-2H-chromen-2-one] | 1.30 | 16.51 | 1.90 | 22.00 | lack of interaction | lack of interaction |  |  |  |  |  |  | 
CC(=O)C[C@@H](c1ccccc1)c1c(O)c2ccccc2oc1=O [S-Warfarin] |  |  |  |  |  |  | 50677.20 | 46647.81 | 1344.45 | 52027.31 | 47570.37 | 1414.20 | lack of pharmacokinetic interaction
CC(=O)C[C@H](c1ccccc1)c1c(O)c2ccccc2oc1=O [R-Warfarin] |  |  |  |  |  |  | 64891.96 | 58796.87 | 1325.29 | 66153.48 | 59534.11 | 1373.71 | lack of pharmacokinetic interaction
